From patent publication US20030109503A1, “Pharmaceutical formulations comprising clavulanic acid alone or in combination with other beta-lactam antibiotics” (SmithKline Beecham p.l.c., priority 1995, published 2003) come the findings set out here.

Structures are written as SMILES. Where two headings read alike, the source gives them in different places.

The test system of assay [1] is plasmid mediated β-lactamase producing strains of K. pneumoniae. The assay can be described thus: MIC in agar, serial dilution, alone or with constant clavulanic acid. Format: cell-based, Klebsiella pneumoniae. The protocol: (§1) Determinations of the minimum inhibitory concentration (MIC) were performed in agar using serial dilutions of the test compounds alone or in the presence of constant concentrations of clavulanic acid (2 or 4 μg/ml). The agar used was Mueller Hinton (BBL) supplemented with 5% lysed horse blood in the case of H. influenzae and M. catarrhalis, except for B. fragilis where Wilkins-Chalgren agar (Oxoid) was used. A multipoint inoculator was used to drop 1 μl of undiluted culture of S. aureus, 10-fold dilutions of B. fragilis, H. influenzae and M. catarrhalis and 100-fold dilutions of E. coli and K. pneumoniae onto the surface of the agar, to give an inoculum of approximately 10^4 to 10^5 cfu/spot.

The subject of assay [2] is β-lactamase producing strains of H. influenzae. The description is as above. Format: cell-based. The protocol: as §1
The subject of assay [3] is β-lactamase producing strains of S. aureus. The description is as above. The format is cell-based. The protocol: as §1
In the next assay the test system is B. fragilis. The assay can be described thus: MIC in agar (Wilkins-Chalgren), serial dilution, alone or with constant clavulanic acid. Format: cell-based, Bacteroides fragilis. The procedure:
as §1

The test system of assay [4] is β-lactamase producing strains of M. catarrhalis. The assay can be described thus: MIC in agar, serial dilution, alone or with constant clavulanic acid. Format: cell-based, Moraxella catarrhalis. The procedure:
as §1

Assay [5] relates to plasmid mediated β-lactamase producing strains of E. coli. Described as above. Format: cell-based, Escherichia coli. The protocol:
as §1

Where [6] appears, read: Gmean MIC values reduced considerably.
The mark [7] stands for this setting: clavulanic acid at 2 or 4 μg/ml.

Regarding `N[C@@H](C(=O)N[C@@H]1C(=O)N2C(C(=O)O)=C(Cl)CS[C@H]12)c1ccccc1` [cefaclor], the MIC90 in assay [1] (Klebsiella pneumoniae) was found to be 256 µg/mL; in assay [2] (Haemophilus influenzae, H.influenzae (15 strains), CA2/CA4 = constant 2 or 4 μg/ml clavulanic acid) it was 16 µg/mL; in assay [3] (Staphylococcus aureus, S.aureus P+ (10 strains), CA2/CA4 = constant 2 or 4 μg/ml clavulanic acid), 64 µg/mL; with B. fragilis (Bacteroides fragilis, B.fragilis (19 strains), CA2/CA4 = constant 2 or 4 μg/ml clavulanic acid), 128 µg/mL; in assay [4] (Moraxella catarrhalis, M.catarrhalis (14 strains), CA2/CA4 = constant 2 or 4 μg/ml clavulanic acid) it was 8 µg/mL; in assay [5] (Escherichia coli) it was 32 µg/mL. Also, the MIC in assay [1] (Klebsiella pneumoniae, read-out: Gmean (geometric mean MIC)) was 17.7 µg/mL; in assay [1] (Klebsiella pneumoniae, read-out: MIC75) it was 256 µg/mL; in assay [2] (Haemophilus influenzae, H.influenzae (15 strains), CA2/CA4 = constant 2 or 4 μg/ml clavulanic acid, read-out: Gmean (geometric mean MIC)) it was 7.64 µg/mL; in assay [2] (Haemophilus influenzae, H.influenzae (15 strains), CA2/CA4 = constant 2 or 4 μg/ml clavulanic acid, read-out: MIC75) it was 16 µg/mL; in assay [3] (Staphylococcus aureus, S.aureus P+ (10 strains), CA2/CA4 = constant 2 or 4 μg/ml clavulanic acid, read-out: Gmean (geometric mean MIC)), 12.4 µg/mL; in assay [3] (Staphylococcus aureus, S.aureus P+ (10 strains), CA2/CA4 = constant 2 or 4 μg/ml clavulanic acid, read-out: MIC75) it was 32 µg/mL. Besides, the MIC in assay [3] (Staphylococcus aureus, in the presence of 2 μg/ml clavulanic acid, read-out: geometric mean (Gmean) MIC of cefaclor) turned out to be 1.13 µg/mL; in assay [3] (Staphylococcus aureus, in the presence of 4 μg/ml clavulanic acid, read-out: geometric mean (Gmean) MIC of cefaclor) it was 0.73 µg/mL; in the assay with B. fragilis (Bacteroides fragilis, B.fragilis (19 strains), CA2/CA4 = constant 2 or 4 μg/ml clavulanic acid, read-out: Gmean (geometric mean MIC)), 151 µg/mL; with B. fragilis (Bacteroides fragilis, B.fragilis (19 strains), CA2/CA4 = constant 2 or 4 μg/ml clavulanic acid, read-out: MIC75), 4 µg/mL; in assay [4] (Moraxella catarrhalis, M.catarrhalis (14 strains), CA2/CA4 = constant 2 or 4 μg/ml clavulanic acid, read-out: Gmean (geometric mean MIC)), 4.88 µg/mL; in assay [4] (Moraxella catarrhalis, M.catarrhalis (14 strains), CA2/CA4 = constant 2 or 4 μg/ml clavulanic acid, read-out: MIC75), 8 µg/mL. Besides, the MIC in assay [5] (Escherichia coli, read-out: Gmean (geometric mean MIC)) was found to be 4.32 µg/mL; in assay [5] (Escherichia coli, read-out: MIC75), 4 µg/mL. Also, the MIC range in assay [2] (H.influenzae (15 strains), CA2/CA4 = constant 2 or 4 μg/ml clavulanic acid) was 2 to 16 µg/mL; in assay [3] (S.aureus P+ (10 strains), CA2/CA4 = constant 2 or 4 μg/ml clavulanic acid) it was 1 to 256 µg/mL; in the assay on B. fragilis (B.fragilis (19 strains), CA2/CA4 = constant 2 or 4 μg/ml clavulanic acid), 64 to 512 µg/mL; in assay [4] (M.catarrhalis (14 strains), CA2/CA4 = constant 2 or 4 μg/ml clavulanic acid) it was 1 to 8 µg/mL; in assay [5] (E.coli R+ (11 strains), CA2/CA4 = constant 2 or 4 μg/ml clavulanic acid), 1 to 32 µg/mL.
Regarding `O=C(O)[C@H]1/C(=C/CO)O[C@@H]2CC(=O)N21` [clavulanic acid], the “effect of clavulanic acid on the activity of cefaclor” value in assay [1] (setting [6]) is recorded as “improved”; in assay [2] (setting [7]), “improved the activity of cefaclor”; in assay [3] (2 and 4 μg/ml clavulanic acid), “markedly improved the activity of cefaclor”; in the assay with B. fragilis (setting [7]) it was “improved the activity of cefaclor”; in assay [4] (setting [7]), “improved the activity of cefaclor”; in assay [5] (setting [6]) it was “improved”.
